Experimental data as given in patent publication US9758459B2, “Allosteric modulators of factor XIa as anticoagulant agents” (VIRGINIA COMMONWEALTH UNIVERSITY, priority 2012, dated 2017).
Where “and” joins values, the source holds several entries; their conditions need not be identical. Equal entries are not always repeated.

Experiments:
Format in all cases: biochemical
human plasma [1] = experiment: Activated partial thromboplastin time (APTT) plasma clotting assay; details: human plasma, concentration doubling clotting time
Method: (§1) Plasma clotting assays, prothrombin and activated partial thromboplastin time (PT and APTT, respectively), are routinely used to assess the anticoagulation potential of new enzyme inhibitors in an in vitro setting. Whereas PT measures the effect of an inhibitor on the extrinsic pathway of coagulation, APTT measures the effect on the intrinsic pathway.
(§2) Prothrombin Time (PT) and Activated Partial Thromboplastin Time (APTT) were assessed as described in Example 1.

Lys535Ala FXIa-CD = target: T1, Lys535Ala FXIa-CD (Homo sapiens, UniProt P03951, C500S/K553A); experiment: 16S inhibition of Lys535Ala FXIa-CD; details: not shown
T1 construct: eliminating the bond allows the catalytic domain of FXIa (FXIa-CD) to separate from the heavy chain; made in house; host or cells: HEK-293
Text: (§3) Mutagenesis and Expression of Recombinant Factor XIa. Mutations in the FXIa 170 helix were introduced into a modified human FXI cDNA (FXI-Ser-362,482), which contains serine substitutions for Cys362 and Cys482 (FXI numbering), as described earlier in several papers.^7,8 A disulfide bond between these residues connects the heavy chains and catalytic domains after cleavage at the activation site, and eliminating the bond allows the catalytic domain of FXIa (FXIa-CD) to separate from the heavy chain. The basic residues of the FXIa 170-helix, Lys529, Arg530, Arg532, Lys535 and Lys539 in the FXI numbering system (correspond to residues 170, 171, 173, 175 and 179 in the chymotrypsinogen numbering system), were changed to alanine individually and as a group using a Quick Change kit (Stratagene, La Jolla, Calif.). cDNAs in expression vector pJVCMV were used to transfect HEK-293 cells as described. Stably expressing clones were expanded in 175 cm^2 flasks, and serum free media (Cellgro Complete, Mediatech, Herndon, Va.) was collected every 48 hours, supplemented with benzamidine (5 mM) and stored at −80° C. pending purification. Recombinant FXI was purified from conditioned media on an anti-fXI IgG 1G5.12 affinity column. […] Protein containing fractions were pooled, concentrated and dialyzed, and protein concentrations were determined by dye-binding assay (Bio-Rad). […]

Lys539Ala FXIa-CD = target: T2, Lys539Ala FXIa-CD (Homo sapiens, UniProt P03951, C500S/K557A); experiment: 16S inhibition of Lys539Ala FXIa-CD; details: not shown
T2 construct: eliminating the bond allows the catalytic domain of FXIa (FXIa-CD) to separate from the heavy chain; made in house; host or cells: HEK-293
Text: as §3

[2] = target: T3, Lys529Ala,Arg530Ala,Arg532Ala FXIa-CD triple mutant (Homo sapiens, UniProt P03951, C500S/K547A/R548A/R550A); experiment: 16S inhibition of triple mutant FXIa-CD, S2366 hydrolysis
T3 construct: eliminating the bond allows the catalytic domain of FXIa (FXIa-CD) to separate from the heavy chain; made in house; host or cells: HEK-293
Text: (§4) FIG. 15. […] Solid lines represent sigmoidal dose-response fits.
(§5) Mutagenesis and Expression of Recombinant Factor XIa. Mutations in the FXIa 170 helix were introduced into a modified human FXI cDNA (FXI-Ser-362,482), which contains serine substitutions for Cys362 and Cys482 (FXI numbering), as described earlier in several papers.^7,8 A disulfide bond between these residues connects the heavy chains and catalytic domains after cleavage at the activation site, and eliminating the bond allows the catalytic domain of FXIa (FXIa-CD) to separate from the heavy chain. The basic residues of the FXIa 170-helix, Lys529, Arg530, Arg532, Lys535 and Lys539 in the FXI numbering system (correspond to residues 170, 171, 173, 175 and 179 in the chymotrypsinogen numbering system), were changed to alanine individually and as a group using a Quick Change kit (Stratagene, La Jolla, Calif.). cDNAs in expression vector pJVCMV were used to transfect HEK-293 cells as described. Stably expressing clones were expanded in 175 cm^2 flasks, and serum free media (Cellgro Complete, Mediatech, Herndon, Va.) was collected every 48 hours, supplemented with benzamidine (5 mM) and stored at −80° C. pending purification. Recombinant FXI was purified from conditioned media on an anti-fXI IgG 1G5.12 affinity column. After loading, the column was washed with 25 mM Tris-HCl, pH 7.4, 100 mM NaCl, and eluted with 2M NaSCN in the same buffer. Protein containing fractions were pooled, concentrated and dialyzed, and protein concentrations were determined by dye-binding assay (Bio-Rad). Recombinant wild-type FXI or FXI-CD (˜200-300 μg/ml) was activated with 5 μg/ml FXIIa at 37° C. Completion of activation was confirmed by SDS-PAGE. Activated preparations were passed over a 1G5.12 column to separate the protease from FXIIa. In the case of proteins prepared in FXI-Ser-362,482, the catalytic domains bind to the column, while the heavy chain passes through.
(§6) Heparin binds to FXIa in two sites—in the A3 domain (Lys252, Lys253, and Lys255) and in the catalytic domain (Lys529, Arg530, Arg532, Lys535, and Lys539). […]

human factor XIa [3] = target: T4, human factor XIa (Homo sapiens, UniProt P03951); experiment: Direct inhibition of factor XIa, chromogenic substrate S-2366 hydrolysis assay; details: FXIa-WT, 16S plus 30 μM polybrene
T4 construct: purchased Haematologic Technologies (Essex Junction, Vt.); host or cells: human plasma

[4] = target: T5, Arg530Ala FXIa-CD single mutant (Homo sapiens, UniProt P03951, C500S/R548A); experiment: 16S inhibition of Arg530Ala FXIa-CD, S2366 hydrolysis; details: Arg530 replaced by Ala
T5 construct: eliminating the bond allows the catalytic domain of FXIa (FXIa-CD) to separate from the heavy chain; made in house; host or cells: HEK-293
Text: as §4
as §3, with “purification.” for “purification. Recombinant FXI was purified from conditioned media on an anti-fXI IgG 1G5.12 affinity column.”

human factor XIa [5] = target: T4, human factor XIa; experiment: Direct inhibition of factor XIa, chromogenic substrate S-2366 hydrolysis assay
Method: Solvent A consisted of 25 mM n-hexylamine in water containing 0.1% (v/v) formic acid, while solvent B consisted of 25 mM n-hexylamine in acetonitrile-water mixture (3:1 v/v) containing 0.1% (v/v) formic acid. […] The sample was first monitored for absorbance in the range of 190-400 nm and then directly introduced into the mass spectrometer. ESI-MS detection was performed in positive ion mode for which the capillary voltage was 4 kV, cone voltage was 20 V, desolvation temperature was 350° C. and nitrogen gas flow was maintained at 650 L/hr. Mass scans were collected in the range of 1000-2048 amu within 0.25 s and several of these added to enhanced signal-to-noise ratio. Direct Inhibition of Factor XIa. […] After 10 min incubation, 5 μL factor XIa substrate (345 μM) was rapidly added and the residual FXIa activity was measured from the initial rate of increase in absorbance at 405 nm. […] Relative residual FXIa activity at each concentration of the inhibitor was calculated from the ratio of FXIa activity in the presence and absence of the inhibitor. Logistic equation 1 was used to fit the dose-dependence of residual protease activity to obtain the potency (IC50) and efficacy (ΔY) of inhibition.
Direct Inhibition of Factor XIa by Sulfated QAOs was performed as described in Example 1.
The ability of the sulfated inositol analogs to inhibit factor XIa was studied using the in vitro assay described in Example 1. In this assay, the factor XIa enzyme is anticipated to hydrolyze a particular peptide linkage in the corresponding peptide substrate releasing p-nitroaniline which absorbs at wavelength of 405 nm giving a line slope corresponds to the enzyme activity. The line slope of no inhibitor status is considered as a reference slope and it depends on the relative concentrations of factor XIa enzyme and its substrate. Factor XIa enzyme concentration was decided to get appropriate reference slope of approximately 25-35, whereas the substrate concentration was set to be larger than its affinity to factor XIa enzyme under equilibrium condition, Km. In presence of potential factor XIa inhibitor, the enzyme capacity to hydrolyze the designated peptide linkage in the substrate gets diminished or completely abolished depending on the inhibitor concentration and efficacy. […] Such decreased slope reflects a drop in the catalytic enzyme activity of factor XIa.

human plasma [6] = experiment: Prothrombin time (PT) plasma clotting assay; details: concentration doubling clotting time
Method: as §1, §2

[7] = target: T6, recombinant wild type FXIa catalytic domain (FXIa-CD) (Homo sapiens, UniProt P03951, C500S); experiment: 16S inhibition of recombinant FXIa catalytic domain, S2366 hydrolysis
T6 construct: eliminating the bond allows the catalytic domain of FXIa (FXIa-CD) to separate from the heavy chain; made in house; host or cells: HEK-293
Text: as §4, §5, §6

T3 sequence (P03951 388-625 C500S/K547A/R548A/R550A): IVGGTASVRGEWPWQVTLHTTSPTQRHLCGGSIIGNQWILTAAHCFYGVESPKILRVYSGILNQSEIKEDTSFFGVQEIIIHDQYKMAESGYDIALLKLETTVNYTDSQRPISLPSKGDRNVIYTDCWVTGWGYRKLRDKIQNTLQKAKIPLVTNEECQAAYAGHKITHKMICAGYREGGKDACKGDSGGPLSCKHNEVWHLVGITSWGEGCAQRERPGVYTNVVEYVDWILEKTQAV
T6 sequence (P03951 388-625 C500S): as the sequence (P03951 388-625 C500S/K547A/R548A/R550A) above, with A160K, A161R, A163R counted along it
T4 sequence (P03951 19-387 limits assumed): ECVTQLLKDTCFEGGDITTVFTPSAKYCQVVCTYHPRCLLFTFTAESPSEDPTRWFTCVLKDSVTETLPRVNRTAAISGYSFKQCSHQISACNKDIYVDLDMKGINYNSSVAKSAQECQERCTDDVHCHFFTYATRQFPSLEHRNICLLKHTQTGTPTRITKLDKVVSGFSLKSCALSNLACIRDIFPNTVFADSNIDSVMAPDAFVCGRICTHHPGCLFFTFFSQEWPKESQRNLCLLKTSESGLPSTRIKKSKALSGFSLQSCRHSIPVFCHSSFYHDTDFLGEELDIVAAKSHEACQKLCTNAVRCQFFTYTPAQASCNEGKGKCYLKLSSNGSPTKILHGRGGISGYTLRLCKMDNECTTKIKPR
T4 sequence (P03951 388-625 limits assumed): as the sequence (P03951 388-625 C500S/K547A/R548A/R550A) above, with S113C, A160K, A161R, A163R counted along it
T2 sequence (P03951 388-625 C500S/K557A): as the sequence (P03951 388-625 C500S/K547A/R548A/R550A) above, with A160K, A161R, A163R, K170A counted along it
T5 sequence (P03951 388-625 C500S/R548A): as the sequence (P03951 388-625 C500S/K547A/R548A/R550A) above, with A160K, A163R counted along it
T1 sequence (P03951 388-625 C500S/K553A): as the sequence (P03951 388-625 C500S/K547A/R548A/R550A) above, with A160K, A161R, A163R, K166A counted along it

O=c1c2ccccc2nc(-c2ccc(OS(=O)(=O)O)cc2)n1CCCCCCn1cc(Cn2c(-c3ccc(OS(=O)(=O)O)cc3)nc3ccccc3c2=O)nn1 [Inhibitor 16S]
2 × APTT (human plasma [1]): 950 µM | change in IC50 from wild-type FXIa-CD (Lys535Ala FXIa-CD): no change in IC50 | change in IC50 from wild-type FXIa-CD (Lys539Ala FXIa-CD): no change in IC50 | proteolytic activity in the presence of 16S ([2]; FXIa-CD triple mutations, no polybrene): ~5% | inhibition level after addition of polybrene ([2]; FXIa-CD with triple mutations, 16S plus 30 μM polybrene): 7.1±1.2% | reduction of potency versus FXIa-CD ([2]; Lys529, Arg530 and Arg532 replaced by Ala): approximately 5 fold | inhibition level after addition of polybrene (human factor XIa [3]): 9.2±1.0% | increase in IC50 versus FXIa-CD [4]: 2 fold | proteolytic activity in the presence of 16S (human factor XIa [5]; full length wild-type FXIa, no polybrene): approximately 4% | ΔY % (efficacy) (human factor XIa [5]; sulfated QAOs): 97 ± 1% | IC50 (human factor XIa [5]; sulfated QAOs, pH 7.4, 37° C., read-out: IC50 (converted)): ~50 µM and 52 µM | 2 × PT (human plasma [6]): >2000 µM | inhibition level after addition of polybrene ([7]; FXIa-CD, 16S plus 30 μM polybrene): 13.1±0.7% | proteolytic activity in the presence of 16S ([7]; FXIa-CD, no polybrene): ~6% | inhibition of FXIa-CD compared with wild-type enzyme ([7]; not shown): as potently as the wild-type enzyme
